Reference: patent US5843941A, “Ras farnesyl transferase inhibitors” (Genentech, Inc., priority 1994, dated 1998)

Experiments:
[1] = test system: H-ras(Val12)-transformed rat-1 fibroblasts (rat 2.2 cells); experiment: Changes in morphology of H-ras-transformed cells; type: cell-based; settings: 5 days; FIG. 6A/6B
Description: Compound 27A (denoted as BG269A in the figure) and compound 27B (denoted as BG269B in the figure) were added at 250 μM to test whether these compounds would induce reversion to a more normal phenotype as had been previously shown with microinjection of anti-Ras antibodies (see Feramisco, J. R. et al Nature 314, 639 (1985)). The H-ras transformed cells, denoted as rat 2.2 cells, were generated by transfection of rat-1 fibroblasts as described (see Seeburg, P. H., Colby, W. W., Capon, D. J., Goeddel, D. V., and Levinson, A. D. Nature 312,71 (1984)). Cells that overgrew the monolayer were extracted and plated onto agar to obtain a cell line displaying a fully transformed phenotype. Untransformed rat-1 fibroblasts and src-transformed rat-1 fibroblasts were also treated. The src-transformed cells were generated by co-transfection of rat-1 fibroblasts with pSV3.Neo.src, a vector containing the gene for src as well as the gene that confers G418 resistance, both under control of SV40 early promoters. G418-resistant cell clones that diplayed a transformed phenotype were used to generate the cell line. On day 0, cells were plated in monolayer culture at 3×10^3 cells per well (24-well plates) in 1 ml DMEM supplemented with 10% FCS, 100 U/ml penicillin, 10 μg/ml streptomycin, 2% DMSO, and 0.5 mM DTT with and without 200 μM inhibitor. On day 3, the cells were refed with the same medium. On day 5, the cells were photographed under contrast at a magnification of 100X. […] This change in morphology is remarkably similar to that seen following injection of anti-ras antibodies into ras-transformed cells (see Feramisco, J. R. et al Nature 314, 639 (1985)). Rat-1 fibroblasts transformed with the src oncogene also grew in a multilayered pattern (FIG. 6C), but this was not affected by compound 27A or compound 27B (FIG. 6D).

[2] = test system: src-transformed rat-1 fibroblasts; experiment: Changes in morphology of src-transformed cells; type: cell-based; settings: FIG. 6C/6D
Description: (§1) Compound 27A (denoted as BG269A in the figure) and compound 27B (denoted as BG269B in the figure) were added at 250 μM to test whether these compounds would induce reversion to a more normal phenotype as had been previously shown with microinjection of anti-Ras antibodies (see Feramisco, J. R. et al Nature 314, 639 (1985)). The H-ras transformed cells, denoted as rat 2.2 cells, were generated by transfection of rat-1 fibroblasts as described (see Seeburg, P. H., Colby, W. W., Capon, D. J., Goeddel, D. V., and Levinson, A. D. Nature 312,71 (1984)). Cells that overgrew the monolayer were extracted and plated onto agar to obtain a cell line displaying a fully transformed phenotype. Untransformed rat-1 fibroblasts and src-transformed rat-1 fibroblasts were also treated. The src-transformed cells were generated by co-transfection of rat-1 fibroblasts with pSV3.Neo.src, a vector containing the gene for src as well as the gene that confers G418 resistance, both under control of SV40 early promoters. G418-resistant cell clones that diplayed a transformed phenotype were used to generate the cell line. On day 0, cells were plated in monolayer culture at 3×10^3 cells per well (24-well plates) in 1 ml DMEM supplemented with 10% FCS, 100 U/ml penicillin, 10 μg/ml streptomycin, 2% DMSO, and 0.5 mM DTT with and without 200 μM inhibitor. On day 3, the cells were refed with the same medium. […]

[3] = test system: untransformed rat-1 fibroblasts; experiment: Changes in morphology of untransformed cells; type: cell-based; settings: FIG. 6E and F
Description: as §1

[4] = test system: Ras proteins in Met18b-2 cells; experiment: Incorporation of [3H]mevalonate into immunoprecipitated Ras proteins in Met18b-2 cells; type: cell-based, Chinese hamster; settings: FIG. 5
Description: In each experiment, aliquots of the Triton X-100 fraction (300 μg protein, prepared as described above) were incubated with 1 μg anti-Ras monoclonal antibody (Oncogene Sciences, Inc.) overnight at 4° C. on a rotating platform. Immune complexes were precipitated by addition of 25 μl Protein A-agarose suspension that had been pre-coated with goat anti-rat IgG (Oncogene Sciences, Inc.) according to the manufacturer's instructions. After a 30 min incubation at 4° C., the agarose beads were pelleted by centrifugation and washed 5 times with 1 ml each of wash solution (50 mM Tris-HCl, 50 mM NaCl, 0.5% (w/v) deoxycholate, 0.5% (v/v) Nonidet P-40, and 0.1% (w/v) SDS at pH 7.5). 75 μl of 1X SDS sample buffer was added and each sample heated for 5 min at 95° C. before electrophoresis as above.

[5] = test system: nuclear lamins A and B in Met18b-2 cells; experiment: [3H]mevalonate labeling of farnesylated nuclear lamins in Met18b-2 cells; type: cell-based, Chinese hamster; settings: 250 μM; FIG. 3
From the text: (§2) To study farnesylation in intact cells we used Met18b-2 cells, a line of Chinese hamster ovary (CHO) cells that takes up [3H]mevalonate efficiently (see Faust, J., and Krieger, M. J. Biol. Chem. 262, 1966 (1987)) owing to the production of a mevalonate transport protein (see Kim, C. M., Goldstein, J. L., Brown, M. S. J. Biol. Chem. 267, 23113 (1992)). The [3H]mevalonate is converted by the cells into [3H]farnesyl pyrophosphate and [3H]geranylgeranyl pyrophosphate, which are then attached to proteins (Kim, C. M., Goldstein, J. L., Brown, M. S. J. Biol. Chem. 267, 23113 (1992)). In the assay, stock cultures of Met18b-2 cells were seeded at a density of 3-105 cells per 60 mm dish in 3 ml of medium A (Dulbecco's modified Eagle medium/Ham's F12 medium (1:1, v/v) containing 100 U/ml penicillin and 100 μg/ml streptomycin) supplemented with 5% (v/v) fetal calf serum (FCS). On day 3, each monolayer was refed with 1 ml medium A supplemented with 1% FCS (dialyzed against 0.15 M NaCl). At this point the cells were treated with 100 μM compactin (see Brown, M. S., Faust, J. R., Goldstein, J. L., Kaneko, I., and Endo, A. J. Biol. Chem. 253, 1121 (1978)) which blocks the synthesis of unlabeled mevalonate within the cells. […] Protein concentrations were determined using the BCA protein assay reagent (Pierce) according to the manufacturer's instructions. […]

CAAX GG transferase = molecular target: T1, CAAX GG transferase (Rattus norvegicus, UniProt P53610+Q04631); experiment: Inhibition of CAAX GG transferase (geranylgeranyltransferase); type: biochemical; settings: 31B (leucine) vs 27B (methionine); FIG. 2B
T1 construct: partially purified CAAX GG transferase; from tissue
T1 sequence (P53610 whole entry, one chain of several): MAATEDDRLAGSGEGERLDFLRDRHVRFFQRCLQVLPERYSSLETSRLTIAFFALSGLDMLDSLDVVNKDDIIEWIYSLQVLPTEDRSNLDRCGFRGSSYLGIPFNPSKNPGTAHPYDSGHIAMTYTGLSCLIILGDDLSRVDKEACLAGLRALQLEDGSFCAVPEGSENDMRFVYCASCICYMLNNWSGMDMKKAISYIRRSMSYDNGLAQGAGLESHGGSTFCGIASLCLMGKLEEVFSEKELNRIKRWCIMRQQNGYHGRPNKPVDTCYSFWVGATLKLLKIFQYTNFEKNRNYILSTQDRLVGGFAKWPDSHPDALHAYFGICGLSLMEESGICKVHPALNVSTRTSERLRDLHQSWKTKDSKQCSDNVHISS
From the text: FIG. 1 compares the inhibitory activity of compound 27B (denoted as BG269B in the figure) on protein prenyltransferases. […] Two other prenyltransferases, both of which transfer 20-carbon geranylgeranyl (GG) groups, have been identified in rat brain. One of thesse, CAAX GG transferase, attaches GG groups to proteins that terminate in CAAX sequences in which X is leucine.
The conditions used to assay the inhibition of CAAX farnesyltransferase are identical to those described above for the in vitro, assay described in Example 121. In FIG. 1B the assay mixture contained, in a final volume of 50 μl, 50 mM sodium Hepes (pH 7.2), 5 mM MgC12, 5 mM DTT, 0.3 mM Nonidet P-40, 0.2% octyl β-glucoside, 1% DMSO, 0.5 μM all trans [3H]geranylgeranyl pyrophosphate (33,000 dpm/pmol; ARC, Inc.), 5 μM recombinant p21^H-rasCVLL, 6.3 μg partially purified CAAX GG transferase (see Seabra, M. C., Reiss, Y., Casey, P. J., Brown, M. S., and Goldstein, J. L. Cell 268, 4055 (1993)) and varying concentrations of the indicated inhibitor. In FIG. 1C, the assay mixture contained in a final volume of 50 μl, 50 mM sodium Hepes (pH 7.2), 5 mM MgCl2, 5 mM DTT, 0.3 mM Nonidet P-40, 0.2% octyl β-D-glucoside, 1% DMSO, 0.5 μM all trans [3H]geranylgeranyl pyrophosphate (33,000 dpm/pmol; ARC, Inc.), 2 μM recombinant Rab1A, 2 ng each of purified Components A and B of Rab GG transferase (see Seabra, M. C., Goldstein, J. L., Sudhof, T. C., and Brown, M. S. J. Biol. Chem. 267, 14497 (1992)) and varying concentrations of the indicated inhibitor.
Each assay was carried out as described in Examples 121 and 122.

[6] = test system: low molecular weight GTP binding proteins (SMG) in Met18b-2 cells; experiment: [3H]mevalonate labeling of low molecular weight GTP binding proteins (SMG) in Met18b-2 cells; type: cell-based, Chinese hamster; settings: 250 μM; FIG. 3
From the text: as §2, with “cells. Each compound was dissolved at 25 mM in DMSO/10 mM DTT immediately before use and 10 μl of this solution added directly. After 2 hr incubation at 37° C., each monolayer received 100 μCi [3H]mevalonate (60 Ci/mmol, American Radiolabeled Chemicals, Inc.) added in 100 μl of the medium A, and the incubation continued for 4 hr. The cells were harvested by rinsing three times with 3 ml of 50 mM Tris-HCl/0.15 M NaCl (pH 7.5). 300 μl of lysis buffer (0.5X Dulbecco's phosphate-buffered saline containing 1% Triton X-100, 5 μg/ml leupeptin, 5 μg/ml pepstatin, 0.5 mM phenylmethylsulfonyl fluoride, and 0.05 U/ml aprotinin) was added to each monolayer. After incubation on ice for 5 mon, the lysates were centrifuged 30 sec in a microfuge at 12,000 g.” for “cells.”

[7] = test system: farnesylated proteins F1, F2 and F3 in Met18b-2 cells; experiment: Inhibition of intracellular farnesylation in intact Met18b-2 cells, Triton-soluble proteins F1, F2, F3; type: cell-based, Chinese hamster; settings: 250 μM; FIG. 3
From the text: To study farnesylation in intact cells we used Met18b-2 cells, a line of Chinese hamster ovary (CHO) cells that takes up [3H]mevalonate efficiently (see Faust, J., and Krieger, M. J. Biol. Chem. 262, 1966 (1987)) owing to the production of a mevalonate transport protein (see Kim, C. M., Goldstein, J. L., Brown, M. S. J. Biol. Chem. 267, 23113 (1992)). The [3H]mevalonate is converted by the cells into [3H]farnesyl pyrophosphate and [3H]geranylgeranyl pyrophosphate, which are then attached to proteins (Kim, C. M., Goldstein, J. L., Brown, M. S. J. Biol. Chem. 267, 23113 (1992)). In the assay, stock cultures of Met18b-2 cells were seeded at a density of 3-105 cells per 60 mm dish in 3 ml of medium A (Dulbecco's modified Eagle medium/Ham's F12 medium (1:1, v/v) containing 100 U/ml penicillin and 100 μg/ml streptomycin) supplemented with 5% (v/v) fetal calf serum (FCS). On day 3, each monolayer was refed with 1 ml medium A supplemented with 1% FCS (dialyzed against 0.15 M NaCl). At this point the cells were treated with 100 μM compactin (see Brown, M. S., Faust, J. R., Goldstein, J. L., Kaneko, I., and Endo, A. J. Biol. Chem. 253, 1121 (1978)) which blocks the synthesis of unlabeled mevalonate within the cells. Each compound was dissolved at 25 mM in DMSO/10 mM DTT immediately before use and 10 μl of this solution added directly. After 2 hr incubation at 37° C., each monolayer received 100 μCi [3H]mevalonate (60 Ci/mmol, American Radiolabeled Chemicals, Inc.) added in 100 μl of the medium A, and the incubation continued for 4 hr. The cells were harvested by rinsing three times with 3 ml of 50 mM Tris-HCl/0.15 M NaCl (pH 7.5). 300 μl of lysis buffer (0.5X Dulbecco's phosphate-buffered saline containing 1% Triton X-100, 5 μg/ml leupeptin, 5 μg/ml pepstatin, 0.5 mM phenylmethylsulfonyl fluoride, and 0.05 U/ml aprotinin) was added to each monolayer. After incubation on ice for 5 mon, the lysates were centrifuged 30 sec in a microfuge at 12,000 g. The resulting supernatant was tranferred to a new tube, and each pellet was resuspended in 60 μl of lysis buffer. Protein concentrations were determined using the BCA protein assay reagent (Pierce) according to the manufacturer's instructions. Detergent-soluble (supernatant) and -insoluble (pellet) samples were mixed with 2X SDS sample buffer (see Laemmli, U. K. Nature 227, 680 (1970)) and heated at 95° C. for 5 min before electrophoresis. Each lane contained 90 μg protein, and was run on a 12.5% SDS-polyacrylamide gel. The gel was dried, treated with ENTENSIFY (NEN-DuPont), and exposed to Kodak XOMAT-AR film for 9 h at -80° C. to allow visualization of all prenylated proteins. Migration of [14C]methylated molecular weight standards (Amersham) were used as markers.
The results of this assay are shown in FIG. 3, using a final concentration of 250 μM for each inhibitor. […] As shown in the figure, none of the control peptides or control benzodiazepine-peptideomimetics altered the prenylation of proteins in intact cells.
Using the same cells and procedures followed above for Example 125, we measured the dose dependence upon the inhibition of farnesylation in intact cells. […] Compound 37B inhibited the famesylation of F1-3 detectably at 10 μM, and almost completely at 25 μM.
In this manner, it is possible to obtain data regarding the comparative potency of these inhibitors upon the level of intracellular farnesylation. We have chosen to report the EC90% values for these inhibitors as the concentration required for a reduction in the Triton- soluble labelling (denoted F-1, F-2, and F-3) to 90% of control cells (untreated).

SMILES	effect on transformed phenotype (morphology) [1]	effect on morphology of src-transformed cells [2]	effect on morphology of untransformed cells [3]	effect of control molecules on [3H]mevalonate incorporation [4]	labeling of farnesylated lamins (F-NL) [5]	fold more sensitivity of CAAX geranylgeranyltransferase to leucine-terminated inhibitor (CAAX GG transferase)	effect on low molecular weight GTP binding proteins (SMG) [6]	labeling of Triton-soluble farnesylated proteins (F1 to F3) [7]
CSCC[C@H](NC(=O)CN1C(=O)C(N(C)C(=O)[C@@H](N)CS)N=C(c2ccccc2)c2ccccc21)C(=O)O (single isomer, unassigned) [27A]	had no effect	not affected	no apparent effect on the morphology of untransformed rat-1 fibroblasts	had no effect				
CC(C)C[C@H](NC(=O)CN1C(=O)C(N(C)C(=O)[C@@H](N)CS)N=C(c2ccccc2)c2ccccc21)C(=O)O (single isomer, unassigned) [31B, N-[[3-[(2-amino-3-mercapto-1-oxopropyl)methylamino]-2,3-dihydro-2-oxo-5-phenyl-1H -1,4-benzodiazepin-1-yl]acetyl]-L-leucine]					reduced moderately the labeling of the farnesylated lamins	5 fold	little effect on the low molecular weight GTP binding proteins	markedly decreased the labeling of all three Triton-soluble farnesylated proteins (F1 to F3)
